Test results as given in ChEMBL document CHEMBL4480359, “Phosphotyrosine prodrugs: design, synthesis and anti-STAT3 activity of ISS-610 aryloxy triester phosphoramidate prodrugs” (Medchemcomm, 2019).
The source made the active and inactive calls. No cut-off for these calls is given here.

Assays:
[1] = target: Signal transducer and activator of transcription 3 (Homo sapiens) (UniProt P40763); assay: Inhibition of STAT3 dimerization in human MDA-MB-231 cells assessed as down-regulation of survivin protein expression at 30 uM after 24 hrs by Western blot analysis; type: cell-based
[2] = Stability in human serum incubated for 12 hrs by mass spectrometric analysis; type: ADME, cell-free
[3] = target: Signal transducer and activator of transcription 3 (Homo sapiens) (UniProt P40763); assay: Inhibition of STAT3 dimerization in human MDA-MB-231 cells assessed as down-regulation of survivin protein expression at 0.1 to 100 uM after 24 hrs by Western blot analysis; type: cell-based
[4] = Stability in human serum assessed as phosphorus peak formation measured over 12 hrs by [31P]-NMR analysis; type: ADME, cell-free
[5] = target: Signal transducer and activator of transcription 3 (Homo sapiens) (UniProt P40763); assay: Inhibition of STAT3 dimerization in human MDA-MB-231 cells assessed as down-regulation of Bcl-xl protein expression at 0.1 to 100 uM after 24 hrs by Western blot analysis; type: cell-based

Chain of Signal transducer and activator of transcription 3 (Homo sapiens) (P40763 whole entry): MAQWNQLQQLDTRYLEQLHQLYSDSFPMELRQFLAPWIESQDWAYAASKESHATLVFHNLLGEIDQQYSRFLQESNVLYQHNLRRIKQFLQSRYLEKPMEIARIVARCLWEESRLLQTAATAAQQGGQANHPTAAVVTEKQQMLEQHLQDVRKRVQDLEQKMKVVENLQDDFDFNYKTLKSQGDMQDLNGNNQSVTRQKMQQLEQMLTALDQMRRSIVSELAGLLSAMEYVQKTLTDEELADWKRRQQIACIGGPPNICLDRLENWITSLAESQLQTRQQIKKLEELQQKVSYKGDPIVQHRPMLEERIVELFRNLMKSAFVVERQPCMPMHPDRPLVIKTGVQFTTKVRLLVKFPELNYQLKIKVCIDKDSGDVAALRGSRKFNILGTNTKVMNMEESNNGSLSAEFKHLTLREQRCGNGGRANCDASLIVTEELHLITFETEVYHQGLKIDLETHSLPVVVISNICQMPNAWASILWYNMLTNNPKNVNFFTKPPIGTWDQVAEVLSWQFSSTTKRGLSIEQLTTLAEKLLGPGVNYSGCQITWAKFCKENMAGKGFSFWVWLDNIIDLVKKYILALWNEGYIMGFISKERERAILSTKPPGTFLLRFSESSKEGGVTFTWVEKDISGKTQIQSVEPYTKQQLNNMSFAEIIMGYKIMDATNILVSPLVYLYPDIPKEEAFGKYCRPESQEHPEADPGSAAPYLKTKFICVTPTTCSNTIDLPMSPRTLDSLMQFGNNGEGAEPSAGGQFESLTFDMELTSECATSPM

Structure (SMILES): COC(=O)[C@H](CC(C)C)NC(=O)[C@H](Cc1ccc(OP(=O)(N[C@@H](C)C(=O)OC(C)C)Oc2cccc3ccccc23)cc1)NC(=O)c1ccc(C#N)cc1 (some centres undefined)
- inhibition [1]: Active
- Stability [2]: Stable
- inhibition [3]: Active
- Stability [4]: Stable
- inhibition [5]: Active

Structure (SMILES): CC(C)C[C@H](NC(=O)[C@H](Cc1ccc(OP(=O)(O)O)cc1)NC(=O)c1ccc(C#N)cc1)C(=O)O
- inhibition [3]: inactive
- inhibition [5]: inactive

Structure (SMILES): COC(=O)[C@H](CC(C)C)NC(=O)[C@H](Cc1ccc(OP(=O)(N[C@@H](C)C(=O)OCc2ccccc2)Oc2cccc3ccccc23)cc1)NC(=O)c1ccc(C#N)cc1 (some centres undefined)
- inhibition [3]: Active
- inhibition [5]: Active

Structure (SMILES): COC(=O)[C@H](CC(C)C)NC(=O)[C@H](Cc1ccc(OP(=O)(O)O)cc1)NC(=O)c1ccc(C#N)cc1
- inhibition [3]: inactive
- inhibition [5]: inactive

Structure (SMILES): COC(=O)[C@H](C)NP(=O)(Oc1ccc(C[C@H](NC(=O)c2ccc(C#N)cc2)C(=O)N[C@@H](CC(C)C)C(=O)OC)cc1)Oc1cccc2ccccc12 (some centres undefined)
- inhibition [1]: Active
- inhibition [3]: Active
- inhibition [5]: Active
